Entries after “also recorded” stand apart in the source; their conditions may differ. Non-standard residues stand in square brackets, D forms with d. No end group written: not given here.
What was measured:
[1] = system: apolipoprotein E knockout mice; test: Model of myocardial ischemia-reperfusion (coronary artery ligation 45 min, reperfusion 24 h); type: in vivo
Experimental: FIG. 2: Effect of P8RI (10 mg/Kg P8RI by subcutaneous injection, 2 minutes prior to reperfusion) on the area at risk and size of myocardial infarction in apolipoprotein E knockout mice (female, 18 week-old) subjected to 45 minutes of ischemia by ligation of the coronary artery, followed by 24 hours of reperfusion. […] P8RI: mice receiving P8RI (n=5); Control: mice receiving a similar volume of vehicle (PBS) without P8RI (n=5). T-Test.
In order to reproduce the ischemia-reperfusion injury in the setting of coronary atherosclerosis (as it occurs in patients) were used 18 week-old female apolipoprotein E knockout mice (N=12/group) which typically develop coronary atherosclerosis by the age of 16 week (Caligiuri et al., Atherosclerosis. 1999 August;145(2):301-8). Mice were subjected to surgical ligation of the left main coronary artery, according to the method described by Michael et al. (Am J Physiol. 1995 December;269(6 Pt 2):H2147-54). After 43 minutes of ischemia, the mice received either P8RI (10 mg/kg) or the vehicle (PBS) by subcutaneous injection and 2 minutes later the ischemic area was reperfused by reopening of the ligated coronary artery. The next day, the mice were re-anesthetized, the chest reopened and the coronary ligature re-tied; the coronary tree was then rinsed with 2 ml of PBS pushed in the coronary tree through retrograde cannulation of the left carotid artery and the non-ischemic area stained by the injection of 50 μl of evan's blue (3% in PBS) in the same cannula. The heart was then quickly removed from the chest and immersed in a saturated KCl solution (to stop the heart in diastole) and rinsed in PBS. […] Each slice was photographed and the area at risk (AAR, negatively stained by the evan's blue) and the necrotic area (MI, negatively stained in red by the TTC solution) were then measured by computer-assisted image analysis.
The AAR, expressed as % of the left ventricle (LV) surface and the necrotic area (MI, expressed as percentage of the AAR and of the LV) were calculated on each slice. The data shown in FIG. 2 are expressed as mean±SEM.

[2] = system: thrombin generation; conditions: cited from earlier work
[3] = system: Rats; test: Model of mesenteric ischemia-reperfusion (mesenteric artery clamped 30 minutes, reperfusion 4 hours); type: in vivo
Experimental: Rats are anesthetized by urethane I.P. A catheter is introduced in the right jugular vein for venous sampling, treatment administration, and solute perfusion (NaCl 0.9%, 10 μl/H/g b.w.) during all the experimental period. A catheter is introduced in the left internal carotid artery for arterial blood pressure monitoring and another one in the bladder for urine collection. […] The aortic ostium of the mesenteric artery is controlled. The intravenous administration of the peptide is initiated 5 minutes before clamping the mesenteric artery and after blood sampling (T0). Then, the mesenteric artery is clamped (total occlusion) for 30 minutes creating mesenteric ischemia. Blood sampling is performed at the end of the mesenteric ischemia period (T0.5). The mesenteric artery is then unclamped and reperfusion is follow-up to 4 hours. New blood samplings are performed each hour (T1.5, 2.5, 3.5, 4.5). The animal is sacrificed at the end of the experimental period after a last blood sampling. Urines are collected and diuresis measured each hour. At sacrifice, the ischemic intestine is sampled. One fragment is extruded in order to measure hemoglobin content. The other one is fixed in paraformaldehyde for histology. Several intermediary biological criteria are use in order to characterize the ischemia-reperfusion injury and to evaluate the beneficial effect of the CD31^shed agonist peptide: plasma and urinary free DNA (Picogreen fluorescent intercalant, Invitrogen), from neutrophil origin, traducing neutrophil activation and death, intra-intestinal lumen hemoglobin content (acid formic reaction, Calbiochem kit), traducing epithelial injury, Myeloperoxidase (MPO) content in the intestinal mucosa, reflecting the local accumulation and activation of neutrophils, plasma soluble p-selectin and MMP9 content, reflecting systemic neutrophil activation, as p-selectin is released by a cleavage from the surface of activated neutrophils (and platelets) and MMP9 is contained in the azurofilic granules of the neutrophils and is released early upon neutrophil degranulation. Finally, the extent of mucin film protection was evaluated by histology of the intestinal wall (Alcian blue staining).

[4] = system: human platelet; conditions: cited from earlier work
[5] = 10 mg/kg subcutaneous, 2 minutes prior to reperfusion, 24 hours of reperfusion, vs vehicle (PBS)
[6] = intravenous perfusion, vs controls
[7] = mesenteric artery transient occlusion model

## kwpalfvr ([dK][dW][dP][dA][dL][dF][dV][dR]) [Peptide P8RI, CD31shed agonist]
[1]; [5]
  size of myocardial infarction (MI) as percentage of the area at risk (AAR): significantly effective in reducing
  size of myocardial infarction (MI) as percentage of the left ventricle (LV): significantly effective in reducing
[1]; administration during the ischemia-reperfusion period, vs non-treated control mouse
  size of the necrotic areas: strongly decrease
[2]
  thrombin generation: reduces
[3]; intravenous perfusion, at sacrifice, controls 317.1±93.27
  hemoglobin content in the intestine lumen: 129.4±47.39 μg/mg prot
[3]; intravenous perfusion, histology
  epithelial villosity abrasion, epithelium desquamation: protect
[3]; intravenous perfusion, vs control rats, data not shown
  mucin / mucus film integrity (histology of the intestinal wall, Alcian blue staining): histological conservation of mucus; also recorded: preserved most of the mucin film
[3]; [6]
  free hemoglobin within the intestinal lumen (ratio, normalized by total protein content): decreased
  free myeloperoxidase MPO in the intestinal mucosa (direct ELISA, optical density): decreased; also recorded: significantly decrease
  plasma MMP9, cumulative concentration (area under the curve of the different time points): decreased; also recorded: significantly decrease
[3]; intravenous, initiated 5 minutes before clamping, vs control rats
  free DNA in the plasma over time: arrest of the progressive increase; also recorded: remains low and similar to sham-operated rats; also recorded: significantly reduces the progressive increase
[3]; intravenous, initiated 5 minutes before clamping, vs controls
  urinary free DNA: reduced; also recorded: significantly reduces the progressive increase
[3]; [7]
  LPS secretion in blood: decrease
  bacterial translocation: prevented
  intestinal necrosis: prevented
[4]
  human platelet aggregation: reduces
